Experimental findings from patent US20200032249A1, “LABELING, ISOLATION, & ANALYSIS OF RNA FROM RARE CELL POPULATIONS” (priority 2017, published 2020) are described below.

One series relates to 293T cells. Nature of the series: anti-BrdU immunofluorescent staining of 293T cells treated with 5-FC or 5-FU. It counts as cell-based, human. The conditions noted are these: 250 μM, 24 h. Here is the method: S. cerevisiae CD was exogenously expressed in human embryonic kidney 293T cells, and the cells were treated with 250 μM fluorocytosine (5-FC). This system is predicted to generate intracellular fluorouracil (5-FU), which is then incorporated into newly synthesized RNAs (FIG. 1a, b). Antibodies against bromodeoxyuridine (BrdU) can recognize BrdU and other halogenated uridines incorporated into nucleic acids (8).
Human embryonic kidney transformed with […] (293T) and human breast cancer MDA-MB-231 (MDA231) cells were cultured in DMEM High Glucose medium (Wheaton) supplemented with 10% Fetal Bovine Serum (Clontech, Catalog number 631106) supplemented with 2 mM L-Glutamine. All cell lines have been routinely tested for mycoplasma contamination. For the induction of CD or CD and UPRT, cells were treated with 1 μg/ml doxycycline for 24 h. For Fluorouracil tagging, cells were treated with 250 μM of 5-FC or 5-FU unless indicated. Where indicated, 125 μM thymine was added together with 5-FC. For the formation of stress granules, cells were treated with 500 μM Sodium Arsenite (Santa Cruz Biotechnologies, Catalog number SC-301816).
Cells were fixed with 4% paraformaldehyde for 10 min, permeabilized with 0.2% TritonX-100 for 10 min, blocked with 5% BSA for one hour at room temperature, prior to incubation with primary antibodies at 4° C. overnight, and secondary antibodies (Thermo Fisher anti-chicken antibody, Catalog number A-11039, Thermo Fisher anti-rat antibody, Catalog number A-11006, Abcam anti-rat antibody, Catalog number ab150117) incubated for 1 h at room temperature. Mouse lungs were fixed in 4% paraformaldehyde overnight at 4° C., embedded in paraffin and sectioned. The lung sections were deparaffinized and stained with hematolxylin/eosin or immunostained using standard protocols. Automated image analysis was performed using the FIJI software package.

For a further series, the system named is MDA231 cells. The series is described as follows: stress granule formation by G3BP immunostaining. It counts as cell-based. The conditions noted are these: for treatment time after which cells started to form stress granules: human. On the procedure:
FIG. 2a-b. Flura-tagging has minimal cytotoxicity. FIG. 2a—Effect of Flura-tagging on stress granule formation. MDA231 cells were treated with 5-FC for the indicated times, and the formation of stress granules was detected by G3BP immunostaining. Control cells were either treated with water or sodium arsenite (Arsenite) for one hour. Arrows indicate stress granules (n=3). Scale bar=20 μM. FIG. 2b—Effect of Flura-tagging on transcription. RNA expression in control cells was compared to CD/UPRT-expressing cells treated with the indicated concentrations of 5-FC for 4 h or 12 h. Each dot represents a gene, with the outer/lighter gray dots indicating genes showing more than 2-fold differential expression, as determined by DESeq2 (n=2). The dotted line represents the four-fold cutoff mark.
5-FU is extensively used as a chemotherapeutic agent for the treatment of solid tumors, based on its ability to induce cancer cell death by inhibiting thymidylate synthase and by causing DNA and RNA damage (12-14). It was therefore crucial to test whether our 5-FU-tagging method, which is based on low concentrations of 5-FC and short incubation time periods, has significant cytotoxic effects under our experimental conditions. CD/UPRT-expressing cells were treated with 5-FC at concentrations of up to 250 μM for up to 12 h (“Flura-tagged” cells), and the effects of this treatment on RNA damage response and transcriptional regulation were investigated.
A key feature of the RNA damage response is the formation of stress granules (15). Ras GTPase-activating protein-binding protein 1 (G3BP), a key component of stress granules, forms distinct foci during stress granule formation (12). We determined the dose- and time-dependent effect of 5-FC treatment on stress granule formation by immunostaining of the cells with anti-G3BP antibody. […] The 5-FC-treated cells started to form stress granules only after 24 h of treatment with 1 mM 5-FC, a concentration four times higher than the maximal concentration of 5-FC used for Flura-tagging, or after 48 h of 5-FC treatment at lower concentrations (FIG. 2a).
Human embryonic kidney transformed with […] (293T) and human breast cancer MDA-MB-231 (MDA231) cells were cultured in DMEM High Glucose medium (Wheaton) supplemented with 10% Fetal Bovine Serum (Clontech, Catalog number 631106) supplemented with 2 mM L-Glutamine. All cell lines have been routinely tested for mycoplasma contamination. For the induction of CD or CD and UPRT, cells were treated with 1 μg/ml doxycycline for 24 h. For Fluorouracil tagging, cells were treated with 250 μM of 5-FC or 5-FU unless indicated. Where indicated, 125 μM thymine was added together with 5-FC. […]

As for `Nc1nc(=O)[nH]cc1F` [5-FC, 5-fluorocytosine], the “immunostaining with anti-BrdU antibody” value with 293T cells (293T cells expressing CD) is “stained by the antibody”; in the series with 293T cells (untransfected control 293T cells), “did not”. For the same molecule, the “stress granules after 12 h” value in the series on MDA231 cells is reported as “did not contain stress granules”. In addition, the “treatment time after which cells started to form stress granules” value with MDA231 cells is listed as 48 h; in the series on MDA231 cells (1 mM) it was 24 h.
